Experimental data: PubChem BioAssay (NCI)
Where “and” joins values, the source holds several entries; their conditions need not be identical. Equal entries are not always repeated.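 Each compound was tested at five concentrations against cells in 96-well plates for 48 hours. Abbreviation: GI50, concentration required for 50% inhibition of growth. TGI is the concentration that stops growth completely.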

Assays:
Test in all cases: NCI tumour cell line growth inhibition, 48 h
SNB-75 CNS = tested on: SNB-75 CNS
NCI-H522 lung = tested on: NCI-H522 lung
SF-295 CNS = tested on: SF-295 CNS
IGROV1 ovarian = tested on: IGROV1 ovarian
CCRF-CEM leukemia = tested on: CCRF-CEM leukemia
KM12 colon = tested on: KM12 colon
RPMI-8226 leukemia = tested on: RPMI-8226 leukemia
MALME-3M melanoma = tested on: MALME-3M melanoma
A498 renal = tested on: A498 renal
EKVX NSCLC = tested on: EKVX NSCLC

SMILES	TGI (SNB-75 CNS)	TGI (NCI-H522 lung)	TGI (SF-295 CNS)	TGI (IGROV1 ovarian)	TGI (CCRF-CEM leukemia)	TGI (KM12 colon)	TGI (RPMI-8226 leukemia)	TGI (MALME-3M melanoma)	TGI (A498 renal)	TGI (EKVX NSCLC)	GI50 (SNB-75 CNS)	GI50 (NCI-H522 lung)	GI50 (SF-295 CNS)	GI50 (IGROV1 ovarian)	GI50 (CCRF-CEM leukemia)	GI50 (KM12 colon)	GI50 (RPMI-8226 leukemia)	GI50 (MALME-3M melanoma)	GI50 (A498 renal)	GI50 (EKVX NSCLC)
Nc1nc(SCC(=O)O)[nH]c(=O)c1N	> 100 µM	> 100 µM	> 100 µM	> 100 µM	7.24 µM	> 100 µM	99.7 µM	> 100 µM	> 100 µM	> 100 µM										
O=C(Nc1cccc(NS(=O)(=O)c2ccc(F)cc2)c1)c1ccc(-c2ccccc2)cc1	44 µM	13 µM	11.8 µM	64.9 µM	> 100 µM	15.6 µM	11.4 µM	10.2 µM	25.9 µM	65.3 µM	6070 nM	2500 nM	2340 nM	4.38 µM	3460 nM	3.46 µM	2310 nM	2810 nM	4.69 µM	2980 nM
O=C1NC(=O)[C@@H](c2cn3c4c(cccc24)CCC3)[C@@H]1c1c[nH]c2ccccc12			> 10 µM and 5.08 µM	> 10 µM and 23.2 µM	> 10 µM and 41.2 µM	> 10 µM and 6.15 µM	> 93.5 µM	> 10 µM and 26.6 µM	> 2.68 µM and 3.22 µM	> 10 µM and 29.3 µM	348 nM and 198 nM	201 nM and 365 nM	330 nM and 260 nM	0.592 µM and 0.833 µM	288 nM and 429 nM	0.382 µM and 0.433 µM	379 nM and 2930 nM	987 nM and 434 nM	0.283 µM and 0.292 µM	482 nM and 991 nM
CC1=CCP(C(F)(F)F)P(C(F)(F)F)C1 (stereo not drawn)	> 100 µM	> 100 µM	> 100 µM	> 100 µM	> 100 µM	> 100 µM	> 100 µM	> 100 µM	> 100 µM	> 100 µM										
Cc1c2cc[n+](C)cc2c(C)c2c1[nH]c1ccc(OC(C)C)cc12	0.82 µM and 1.99 µM	3.8 µM and 8.1 µM		22.3 µM and 29.5 µM	23.9 µM and > 64.7 µM	13.3 µM and 11.4 µM	36.9 µM and > 60.5 µM	3.89 µM and 5.25 µM	> 46.8 µM	> 100 µM			231 nM and 1700 nM		2590 nM and 15900 nM					
CC(C)(C)c1ccc(Oc2ccc(C#N)c(C#N)c2)c(C(C)(C)C)c1	> 100 µM	60.6 µM	> 100 µM	> 100 µM	> 66.2 µM	> 100 µM	43.1 µM	> 100 µM	> 100 µM	> 100 µM										
Brc1nc2c3ccccc3ncn2c1Br	44.2 µM	53.6 µM	> 100 µM	> 100 µM	> 100 µM	> 100 µM	> 100 µM	33.2 µM	> 100 µM	95.9 µM										
Cc1cc(Cl)ccc1NC(=O)/C(Cc1nc2ccc(C(=O)c3ccccc3)cc2[nH]c1=O)=N/NC(=O)c1ccncc1	> 100 µM	> 100 µM	> 100 µM	> 100 µM	> 100 µM	> 100 µM	> 100 µM	> 100 µM	> 100 µM	> 100 µM										
CN(C)CCN1N=Nc2cccc3cccc1c23	> 100 µM	> 100 µM	> 100 µM	> 100 µM	> 78.8 µM	> 100 µM	> 64.3 µM	> 100 µM	> 100 µM	> 100 µM										
CC(C)(C)[Si](C)(C)OC1[C@@H](O[Si](C)(C)C(C)(C)C)[C@@H](CNC(=O)NC(=O)NC(=O)CI)O[C@H]1n1cnc2c(NC(=O)Nc3ccccc3)ncnc21 (stereo partly drawn)	3.17 µM	0.0522 µM	2.36 µM	0.246 µM	0.102 µM	3.78 µM	1.76 µM	0.565 µM	11.4 µM	1.14 µM	651 nM	26.2 nM	849 nM	0.113 µM	30.1 nM	0.68 µM	285 nM	143 nM	3.61 µM	236 nM
Nc1ccc(CCN2CCN(c3cccc(C(F)(F)F)c3)CC2)cc1	> 100 µM	> 100 µM	> 100 µM	> 100 µM	> 100 µM	> 100 µM	> 100 µM	> 100 µM	> 100 µM	> 100 µM										
c1ccc(Oc2c3ccccc3nc3ccccc23)cc1	14.2 µM	10.7 µM	> 100 µM	15.8 µM	> 100 µM	11 µM	24.6 µM	8.71 µM	25.8 µM	20.9 µM	3490 nM	2220 nM	5030 nM	4.31 µM	1120 nM	3.64 µM	4750 nM	2150 nM	4.49 µM	4430 nM
O=[N+]([O-])c1ccc(OCCNc2cccc3ccccc23)cc1	> 100 µM	> 100 µM	> 100 µM	> 100 µM	> 100 µM	> 100 µM	> 100 µM	> 100 µM	> 100 µM	> 100 µM										
O=[N+]([O-])c1ccc2c(c1)OCCOCCOc1ccc([N+](=O)[O-])cc1OCCOCCO2	> 100 µM	> 100 µM	> 100 µM	> 100 µM	> 100 µM	> 100 µM	> 100 µM	> 100 µM	> 100 µM	> 100 µM										
COc1cccc2c(Nc3ccc(C(=O)NCCNCCO)cc3)cc(-c3ccccc3)nc12	34.9 µM	53.8 µM	> 100 µM	48.7 µM	48.3 µM	> 100 µM	60.3 µM	37.9 µM	> 100 µM	> 100 µM		20300 nM	40900 nM	20.4 µM	20200 nM	33.2 µM	24500 nM	21000 nM	62.5 µM	> 100000 nM
COC(=O)C(=O)C(C(=O)C(=O)Nc1ccc([N+](=O)[O-])cc1[N+](=O)[O-])c1nc2ccc([N+](=O)[O-])cc2[nH]c1=O (stereo not drawn)	84.9 µM	> 100 µM	> 100 µM	> 100 µM	> 100 µM	> 100 µM	> 100 µM	> 100 µM	> 100 µM	> 100 µM										
O=P(Oc1ccccc1)(Oc1ccccc1)C(O)c1ccccc1 (stereo not drawn)	> 100 µM	> 100 µM	> 100 µM	> 100 µM	> 100 µM	> 100 µM	> 100 µM	> 100 µM	> 100 µM	> 100 µM	34400 nM	25400 nM	29300 nM	37.2 µM	> 100000 nM	51 µM	33300 nM	4650 nM	34.8 µM	26500 nM
